# How the values were obtained:
# [1] = test system: intimal hyperplasia; assay: Sheep carotid artery bypass graft (ePTFE) model, paclitaxel containing mesh; details: for Percent Change in Maximal Intimal Thickness / Percent Change in % Stenosis / Percent Change in Intimal Area: vs zero-dose mesh;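 as to all read-outs here: sheep with ePTFE carotid bypass grafts, PLG mesh wrapped at the distal anastomosis, histology of fixed graft and artery sections about 56 days after implantation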
# Procedure: The left and right carotid arteries of anesthetized sheep were exposed by sharp dissection. A tunnel was formed from one carotid artery to the other to accommodate the ePTFE graft. The ePTFE graft was tunneled and trimmed for appropriate length and configuration. Using standard vascular technique, the ePTFE graft was anastomosed end-to-side with running 6-0 polypropylene suture. The angle of the junction between graft and native vessel was approximately 45°. The length of the implanted graft ranged from 9.5-15 cm (average 11 cm).
# Paclitaxel was incorporated into the 2 cm×5 cm PLG mesh in the following doses and animal test groups: Group 1, 0 mg; Group 2, 0.6 mg; Group 3, 1.8 mg; and Group 4, 3.0 mg. The mesh was placed at the distal end of the graft at the anastomosis site. To place the mesh, the long side was pulled under the artery and up around either side of the distal end of the graft. One edge was positioned as close to the heel of the anastomosis as possible. The top edges of the mesh were sewn together with one suture on either side of the graft so that no gaps were left in the circumferential direction. One suture was placed at the proximal end and the other at the distal end of the mesh, and sewn to nearby connective tissue to prevent slippage of the mesh away from the anastomosis (see FIG. 6). The surgical sites were closed in layers with running absorbable sutures. Standard antibiotics and analgesics were administered after surgery for several days as required.
# At approximately 56 days post-graft implant, animals were anesthetized. Contrast media was injected and angiograms performed of the distal graft and artery at the distal anastomosis. Immediately prior to euthanasia, the animals received heparin (150 U/kg, IV) and immediately after euthanasia, the ePTFE graft was rinsed in situ with lactated Ringers solution and perfusion-fixed in situ with 10% neutral buffered formalin (NBF). The specimens were excised en bloc and allowed to immersion fix in 10% NBF at least 24 hours prior to histological processing.
# The fixed specimens were trimmed and mapped accurately for corresponding cross sectional location in reference to the ePTFE graft configuration. […] A total of nine sections were cut at the distal end of the graft: two cut perpendicular to the artery on either side of the anastomosis (A1 and A5), one perpendicular to the artery through the “toe” of the anastomosis (A2), one or two cut through the floor of the anastomosis adjacent to the “toe” (A3 and A4), three cut perpendicular to the graft at its distal end, and one through the center of the graft. Adjacent sections were cut at approximately 3 mm intervals. The specimens were paraffin-embedded, cross-sectioned, and four sets of slides made, two stained with hematoxylin and eosin (H&E), and one each stained with Masson's trichrome and Verhoeff Van Gieson (VVG). These stains were selected for their ability to show tissue cellularity (H&E), collagen, smooth muscle and fibrin (Masson's Trichrome), and elastin (VVG).
# The morphometric analysis system consists of an Olympus BX40 microscope, Optronics Image Sensor DEI-750, Sony HR Trinitron monitor, and PC computer equipped with Media Cybernetics Image-Pro Plus software v.
# [2] = test system: intimal hyperplasia; assay: Rat balloon injury carotid artery model, paclitaxel containing mesh; assay type: in vivo; details: 1×1 cm paclitaxel-containing mesh (345 μg paclitaxel in 50:50 PLG coating on 10:90 PLG mesh), perivascular, 14 days after balloon injury
# Procedure: Wistar rats weighing 400-500 g were anesthetized with 1.5% halothane in oxygen and the left external carotid artery was exposed. An A 2 French Fogarty balloon embolectomy catheter (Baxter, Irvine, Calif.) was advanced through an arteriotomy in the external carotid artery down the left common carotid artery to the aorta. The balloon was inflated with enough saline to generate slight resistance (approximately 0.02 ml) and it was withdrawn with a twisting motion to the carotid bifurcation. The balloon was then deflated and the procedure repeated twice more. This technique produced distension of the arterial wall and denudation of the endothelium. The external carotid artery was ligated after removal of the catheter. The right common carotid artery was not injured and was used as a control.
# Immediately after injury of the left common carotid artery, a 1 cm long distal segment of the artery was exposed and treated with a 1×1 cm paclitaxel-containing mesh. The wound was then closed the animals were kept for 14 days.
# At the time of sacrifice, the animals were euthanized with carbon dioxide and pressure perfused at 100 mmHg with 10% phosphate buffered formaldehyde for 15 minutes. Both carotid arteries were harvested and left overnight in fixative. The fixed arteries were processed and embedded in paraffin wax. […]
# [3] = Dose 0.6 (mg in PLG mesh, Group 2), Graft Section 6, approx. 56 days
# [4] = Dose 0.6 (mg in PLG mesh, Group 2), Graft Section 7, approx. 56 days
# [5] = Dose 0.6 (mg in PLG mesh, Group 2), Graft Section 8, approx. 56 days
# [6] = Dose 1.8 (mg in PLG mesh, Group 3), Graft Section 6, approx. 56 days
# [7] = Dose 1.8 (mg in PLG mesh, Group 3), Graft Section 7, approx. 56 days
# [8] = Dose 1.8 (mg in PLG mesh, Group 3), Graft Section 8, approx. 56 days
# [9] = Dose 3.0 (mg in PLG mesh, Group 4), Graft Section 6, approx. 56 days
# [10] = Dose 3.0 (mg in PLG mesh, Group 4), Graft Section 7, approx. 56 days
# [11] = Dose 3.0 (mg in PLG mesh, Group 4), Graft Section 8, approx. 56 days
smiles,measurement,setting,value
"CC(=O)O[C@H]1C(=O)[C@@]2(C)[C@H]([C@H](OC(=O)c3ccccc3)[C@]3(O)C[C@H](OC(=O)[C@H](O)[C@@H](NC(=O)c4ccccc4)c4ccccc4)C(C)=C1C3(C)C)[C@]1(OC(C)=O)CO[C@@H]1C[C@@H]2O [Paclitaxel, paclitaxel]",Percent Change in Maximal Intimal Thickness,"[1]; Dose 0.6 (mg in 2 cm×5 cm PLG mesh, Group 2), Graft ""Toe"" Section 2, approx. 56 days",−5%
same,Percent Change in % Stenosis,[1]; [3],−59%^
same,Percent Change in Intimal Area,[1]; [3],−62%^
same,Percent Change in Maximal Intimal Thickness,[1]; [3],−71%^2
same,Percent Change in % Stenosis,[1]; [4],−66%^2
same,Percent Change in Intimal Area,[1]; [4],−67%^2
same,Percent Change in Maximal Intimal Thickness,[1]; [4],−65%
same,Percent Change in % Stenosis,[1]; [5],−75%^2
same,Percent Change in Intimal Area,[1]; [5],−77%
same,Percent Change in Maximal Intimal Thickness,[1]; [5],−59%
same,Percent Change in Maximal Intimal Thickness,"[1]; Dose 1.8 (mg in PLG mesh, Group 3), Graft ""Toe"" Section 2, approx. 56 days",−28%
same,Percent Change in % Stenosis,[1]; [6],−84%^2
same,Percent Change in Intimal Area,[1]; [6],−85%^2
same,Percent Change in Maximal Intimal Thickness,[1]; [6],−77%^2
same,Percent Change in % Stenosis,[1]; [7],−85%^2
same,Percent Change in Intimal Area,[1]; [7],−85%^2
same,Percent Change in Maximal Intimal Thickness,[1]; [7],−71%^2
same,Percent Change in % Stenosis,[1]; [8],−75%^2
same,Percent Change in Intimal Area,[1]; [8],−76%
same,Percent Change in Maximal Intimal Thickness,[1]; [8],−63%
same,Percent Change in Maximal Intimal Thickness,"[1]; Dose 3.0 (mg in PLG mesh, Group 4), Graft ""Toe"" Section 2, approx. 56 days",−34%
same,Percent Change in % Stenosis,[1]; [9],−81%^2
same,Percent Change in Intimal Area,[1]; [9],−82%^2
same,Percent Change in Maximal Intimal Thickness,[1]; [9],−74%^2
same,Percent Change in % Stenosis,[1]; [10],−79%^2
same,Percent Change in Intimal Area,[1]; [10],−80%^2
same,Percent Change in Maximal Intimal Thickness,[1]; [10],−69%
same,Percent Change in % Stenosis,[1]; [11],−86%^
same,Percent Change in Intimal Area,[1]; [11],−86%
same,Percent Change in Maximal Intimal Thickness,[1]; [11],−83%^2
same,"MIT (maximal neointimal thickness), group average ±SD","[1]; Section 2 (""toe"" section), high dose (3.0 mg), approx. 56 days",0.54±0.23 mm
same,MIT less than controls,"[1]; Section 2 (""toe"" section), high dose (3.0 mg), not statistically significant (p>0.05)",34%
same,"MIT (maximal neointimal thickness), group average ±SD","[1]; Section 2 (""toe"" section), low dose (0.6 mg), approx. 56 days",0.78±0.30 mm
same,MIT less than controls,"[1]; Section 2 (""toe"" section), low dose (0.6 mg), not statistically significant (p>0.05)",5%
same,"MIT (maximal neointimal thickness), group average ±SD","[1]; Section 2 (""toe"" section), mid dose (1.8 mg), approx. 56 days",0.59±0.14 mm
same,MIT less than controls,"[1]; Section 2 (""toe"" section), mid dose (1.8 mg), not statistically significant (p>0.05)",28%
same,mechanical integrity of the anastomosis (leakage),[1]; dose range tested (0.6-3.0 mg in mesh),does not affect the mechanical integrity of the anastomosis
same,Intraluminal endothelialization,[1]; doses tested (0.6-3.0 mg in mesh),not affected
same,lesions causing luminal narrowing at the distal end of the graft,"[1]; lowest paclitaxel dose, 0.6 mg",marked and signifimayt reduction
same,reduction in stenosis,"[1]; paclitaxel groups (0.6, 1.8, 3.0 mg), sections 6, 7, 8, 7 of 9 values significantly lower than controls (p≦0.05)",70-80%
same,IA (neointimal area) reduced,"[1]; paclitaxel groups (0.6, 1.8, 3.0 mg), sections 6, 7, 8, vs control group",70-80%
same,"MIT (maximal neointimal thickness), group average ±SD","[1]; section 6 (first full cross section of graft adjacent to the distal anastomosis), low dose (0.6 mg), p<0.05",0.38±0.12 mm
same,"MIT (maximal neointimal thickness), group average ±SD","[1]; section 6, high dose (3.0 mg), p<0.05",0.34±0.20 mm
same,"MIT (maximal neointimal thickness), group average ±SD","[1]; section 6, medium dose (1.8 mg), p<0.05",0.31±0.29 mm
same,MIT less than controls,"[1]; sections 7 and 8, all the paclitaxel groups (0.6, 1.8, 3.0 mg)",approximately 70%
same,"intimal hyperplasia (histology, FIGS. 3-5)",[2],dramatic reduction in intimal hyperplasia

# From patent US20080085855A1, “Perivascular wraps” (Angiotech International AG, priority 2002, published 2008)
